Key:
[1] = tested on: pain in patient with metastatic cancer; test: Case report: second patient with metastatic cancer pain; assay type: in vivo, human patient
Source text: A second patient with metastatic cancer was also experiencing pain and had reported little or no relief from common analgesics.

[2] = tested on: intense, bilateral pain in both feet; test: Case report: patient with bilateral foot pain, oral drug treatment; assay type: in vivo, human patient; conditions: for decrease in pain: foot pain from stretched plantar fascia, earlier drug treatments
Protocol: Additionally, the patient was treated with topical lidocaine and with a tens machine.

[3] = tested on: intense, bilateral pain in both feet; test: Case report: same foot-pain patient, topical application in a cream; assay type: in vivo, human patient; conditions: applied topically in a cream
[4] = may be eliminated more slowly in obese individuals; cited from earlier work
[5] = has been reported; cited from earlier work

With `Cc1ccc(-c2nc3ccc(C)cn3c2CC(=O)N(C)C)cc1` [AMBIEN, N,N,6-trimethyl-2-p-tolyl-imidazo[1,2-a]pyridine-3-acetamide] the analgesic effect [1] was “marked analgesic effect”, the “duration of pain abatement” value ([2]; obese person, 10 mg H.S.) was 12 to 14 h and the “other foot pains (arch, heel, cuboid area)” value ([2]; person) was “ameliorated”. The effective dosage ([2]; person, 10 mg H.S.) was “about 0.08 mg per kg”, the abatement of pain ([2]; person, 10 mg H.S., able to walk prior to retiring) was “noticeable abatement of pain” and the “pain relief after topical application” value [3] was “reported pain relief”. For the same compound, the lipophilicity [4] was “lipophilic” and the “time in which metabolized” value [5] was 6 to 8 h.

With `CN(C)CCC=C1c2ccccc2CCc2ccccc21` [Elavil, amitryptiline] the decrease in pain ([2]; person) was “only the latter showing any decrease in pain”.

With `Nc1nnc(-c2cccc(Cl)c2Cl)c(N)n1` [Lamictal] the decrease in pain ([2]; person) was “only the latter showing any decrease in pain”.

With `NCC1(CC(=O)O)CCCCC1` [Neurontin] the decrease in pain ([2]; person) was “only the latter showing any decrease in pain”.

With `CNCCC=C1c2ccccc2CCc2ccccc21` [Parmelar, nortryptiline] the decrease in pain ([2]; person) was “only the latter showing any decrease in pain”.

For `CC1(C)O[C@@H]2[C@@H](CO[C@@]3(COS(N)(=O)=O)OC(C)(C)O[C@@H]23)O1` [Topamax], the decrease in pain ([2]; person) was “only the latter showing any decrease in pain”.

In the case of `COc1cccc(C2(O)CCCCC2CN(C)C)c1` (centres unmarked) [Ultram], the decrease in pain ([2]; person) is reported as “only the latter showing any decrease in pain”.

— patent US20040204443A1, “Method for inducing pain relief using imidazo[1,2-a]pyridine derivatives” (priority 2003, published 2004)
